Laboratory results published in ChEMBL document CHEMBL4619777, “A New Class of Dengue and West Nile Virus Protease Inhibitors with Submicromolar Activity in Reporter Gene DENV-2 Protease and Viral Replication Assays” (J Med Chem, 2020).

What was measured:
[1] = target: Genome polyprotein (West Nile virus) (UniProt P06935); assay: Inhibition of West Nile virus NS2B-NS3 protease expressed in Escherichia coli BL21 lambda (DE3) cells at 50 uM using Abz-Gly-Leu-Lys-Arg-Gly-Gly-3-(NO2)Tyr as substrate preincubated for 15 mins followed by substrate addition measured for 15 mins by fluorimetric analysis relative to control
[2] = Permeability of the compound assessed as mass retention at 200 uM measured after 5 hrs at pH 7.4 by PAMPA; type: ADME; settings: pH 7.4, 5 h
Genome polyprotein [3] = target: T1, Genome polyprotein (dengue virus type 2, UniProt P29990); assay: Inhibition of Dengue virus serotype 2 NS2B-NS3 protease transfected in human HeLa cells measured after 24 hrs by Renilla-luciferase reporter gene assay; type: cell-based
[4] = Permeability of the compound assessed as drug level in acceptor plate at 200 uM measured after 5 hrs at pH 7.4 by PAMPA; type: ADME; settings: pH 7.4, 5 h
[5] = Cytotoxicity against human HeLa cells assessed as reduction in cell viability measured after 24 hrs by celltiter-blue assay; type: cell-based
Trypsin = Trypsin (Homo sapiens, UniProt P07477+P07478+P35030); assay: Inhibition of trypsin (unknown origin) at 50 uM using Boc-Val-Pro-Arg-AMC as substrate preincubated for 15 mins followed by substrate addition and measured for 15 mins by fluorimetric assay relative to control; type: protein assay; settings: 0.25 h, 50 µM
[6] = Permeability of the compound assessed as drug level in donor plate at 200 uM measured after 5 hrs at pH 7.4 by PAMPA; type: ADME; settings: pH 7.4, 5 h
Genome polyprotein [7] = target: Genome polyprotein (West Nile virus, UniProt P06935); assay: Inhibition of West Nile virus NS2B-NS3 protease expressed in Escherichia coli BL21 lambda (DE3) cells using Abz-Gly-Leu-Lys-Arg-Gly-Gly-3-(NO2)Tyr as substrate preincubated for 15 mins followed by substrate addition measured for 15 mins by fluorimetric analysis
[8] = Permeability of the compound at 200 uM measured after 5 hrs at pH 7.4 by PAMPA; type: ADME; settings: read-out: permeability
Genome polyprotein [9] = target: T1, Genome polyprotein; assay: Inhibition of Dengue virus serotype 2 NS2B-NS3 protease expressed in Escherichia coli BL21 lambda (DE3) cells using Abz-Nle-Lys-Arg-Arg-Ser-3-(NO2)Tyr as substrate preincubated for 15 mins followed by substrate addition and measured for 15 mins by FRET assay
[10] = target: Genome polyprotein (dengue virus type 2) (UniProt P29990); assay: Inhibition of Dengue virus serotype 2 NS2B-NS3 protease transfected in human HeLa cells at 12.5 uM measured after 24 hrs by Renilla-luciferase reporter gene assay relative to control; type: cell-based
Prothrombin = Prothrombin (Homo sapiens, UniProt P00734); assay: Inhibition of thrombin (unknown origin) at 25 uM using Boc-Val-Pro-Arg-AMC as substrate preincubated for 15 mins followed by substrate addition and measured for 15 mins by fluorimetric assay; settings: 0.25 h
[11] = target: Genome polyprotein (dengue virus type 2) (UniProt P29990); assay: Inhibition of Dengue virus serotype 2 NS2B-NS3 protease expressed in Escherichia coli BL21 lambda (DE3) cells at 50 uM using Abz-Nle-Lys-Arg-Arg-Ser-3-(NO2)Tyr as substrate preincubated for 15 mins followed by substrate addition and measured for 15 mins by FRET assay relative to control
dengue virus type 2 = assay: Antiviral activity against DENV2 infected in human HuH7 cells assessed as reduction in virus titer at 12.5 uM measured after 48 hrs relative to control; type: functional; settings: Huh-7, 48 h
Huh-7 = assay: Cytotoxicity against human HuH7 cells assessed as reduction in cell viability at 12 uM measured after 48 hrs by celltiter-blue assay; type: cell-based; settings: huh-7, 48 h

Sequence of Genome polyprotein (West Nile virus, UniProt P06935) (P06935 1371-1501 limits assumed): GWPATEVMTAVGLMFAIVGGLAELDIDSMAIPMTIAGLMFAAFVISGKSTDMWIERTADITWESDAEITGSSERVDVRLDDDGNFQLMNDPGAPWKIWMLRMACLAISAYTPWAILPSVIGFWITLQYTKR
Sequence of Genome polyprotein (West Nile virus, UniProt P06935) (P06935 1502-2120 limits assumed): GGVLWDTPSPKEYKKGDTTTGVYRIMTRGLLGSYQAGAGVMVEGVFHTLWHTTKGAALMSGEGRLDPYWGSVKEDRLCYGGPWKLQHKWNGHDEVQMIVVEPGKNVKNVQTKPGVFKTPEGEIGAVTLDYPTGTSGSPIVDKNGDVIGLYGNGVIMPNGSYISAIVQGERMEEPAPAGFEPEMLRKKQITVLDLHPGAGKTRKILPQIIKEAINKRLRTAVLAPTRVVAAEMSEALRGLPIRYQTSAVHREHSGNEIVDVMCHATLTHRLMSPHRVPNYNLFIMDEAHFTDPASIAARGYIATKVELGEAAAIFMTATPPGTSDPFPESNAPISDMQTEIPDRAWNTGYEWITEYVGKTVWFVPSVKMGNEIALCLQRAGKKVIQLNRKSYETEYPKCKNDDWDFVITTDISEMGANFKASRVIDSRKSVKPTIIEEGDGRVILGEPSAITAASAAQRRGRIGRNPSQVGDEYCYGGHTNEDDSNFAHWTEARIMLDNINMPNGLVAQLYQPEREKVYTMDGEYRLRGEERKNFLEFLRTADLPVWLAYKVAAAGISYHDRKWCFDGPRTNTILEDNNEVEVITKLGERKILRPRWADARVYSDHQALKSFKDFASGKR
Sequence of Genome polyprotein (West Nile virus) (P06935 whole entry): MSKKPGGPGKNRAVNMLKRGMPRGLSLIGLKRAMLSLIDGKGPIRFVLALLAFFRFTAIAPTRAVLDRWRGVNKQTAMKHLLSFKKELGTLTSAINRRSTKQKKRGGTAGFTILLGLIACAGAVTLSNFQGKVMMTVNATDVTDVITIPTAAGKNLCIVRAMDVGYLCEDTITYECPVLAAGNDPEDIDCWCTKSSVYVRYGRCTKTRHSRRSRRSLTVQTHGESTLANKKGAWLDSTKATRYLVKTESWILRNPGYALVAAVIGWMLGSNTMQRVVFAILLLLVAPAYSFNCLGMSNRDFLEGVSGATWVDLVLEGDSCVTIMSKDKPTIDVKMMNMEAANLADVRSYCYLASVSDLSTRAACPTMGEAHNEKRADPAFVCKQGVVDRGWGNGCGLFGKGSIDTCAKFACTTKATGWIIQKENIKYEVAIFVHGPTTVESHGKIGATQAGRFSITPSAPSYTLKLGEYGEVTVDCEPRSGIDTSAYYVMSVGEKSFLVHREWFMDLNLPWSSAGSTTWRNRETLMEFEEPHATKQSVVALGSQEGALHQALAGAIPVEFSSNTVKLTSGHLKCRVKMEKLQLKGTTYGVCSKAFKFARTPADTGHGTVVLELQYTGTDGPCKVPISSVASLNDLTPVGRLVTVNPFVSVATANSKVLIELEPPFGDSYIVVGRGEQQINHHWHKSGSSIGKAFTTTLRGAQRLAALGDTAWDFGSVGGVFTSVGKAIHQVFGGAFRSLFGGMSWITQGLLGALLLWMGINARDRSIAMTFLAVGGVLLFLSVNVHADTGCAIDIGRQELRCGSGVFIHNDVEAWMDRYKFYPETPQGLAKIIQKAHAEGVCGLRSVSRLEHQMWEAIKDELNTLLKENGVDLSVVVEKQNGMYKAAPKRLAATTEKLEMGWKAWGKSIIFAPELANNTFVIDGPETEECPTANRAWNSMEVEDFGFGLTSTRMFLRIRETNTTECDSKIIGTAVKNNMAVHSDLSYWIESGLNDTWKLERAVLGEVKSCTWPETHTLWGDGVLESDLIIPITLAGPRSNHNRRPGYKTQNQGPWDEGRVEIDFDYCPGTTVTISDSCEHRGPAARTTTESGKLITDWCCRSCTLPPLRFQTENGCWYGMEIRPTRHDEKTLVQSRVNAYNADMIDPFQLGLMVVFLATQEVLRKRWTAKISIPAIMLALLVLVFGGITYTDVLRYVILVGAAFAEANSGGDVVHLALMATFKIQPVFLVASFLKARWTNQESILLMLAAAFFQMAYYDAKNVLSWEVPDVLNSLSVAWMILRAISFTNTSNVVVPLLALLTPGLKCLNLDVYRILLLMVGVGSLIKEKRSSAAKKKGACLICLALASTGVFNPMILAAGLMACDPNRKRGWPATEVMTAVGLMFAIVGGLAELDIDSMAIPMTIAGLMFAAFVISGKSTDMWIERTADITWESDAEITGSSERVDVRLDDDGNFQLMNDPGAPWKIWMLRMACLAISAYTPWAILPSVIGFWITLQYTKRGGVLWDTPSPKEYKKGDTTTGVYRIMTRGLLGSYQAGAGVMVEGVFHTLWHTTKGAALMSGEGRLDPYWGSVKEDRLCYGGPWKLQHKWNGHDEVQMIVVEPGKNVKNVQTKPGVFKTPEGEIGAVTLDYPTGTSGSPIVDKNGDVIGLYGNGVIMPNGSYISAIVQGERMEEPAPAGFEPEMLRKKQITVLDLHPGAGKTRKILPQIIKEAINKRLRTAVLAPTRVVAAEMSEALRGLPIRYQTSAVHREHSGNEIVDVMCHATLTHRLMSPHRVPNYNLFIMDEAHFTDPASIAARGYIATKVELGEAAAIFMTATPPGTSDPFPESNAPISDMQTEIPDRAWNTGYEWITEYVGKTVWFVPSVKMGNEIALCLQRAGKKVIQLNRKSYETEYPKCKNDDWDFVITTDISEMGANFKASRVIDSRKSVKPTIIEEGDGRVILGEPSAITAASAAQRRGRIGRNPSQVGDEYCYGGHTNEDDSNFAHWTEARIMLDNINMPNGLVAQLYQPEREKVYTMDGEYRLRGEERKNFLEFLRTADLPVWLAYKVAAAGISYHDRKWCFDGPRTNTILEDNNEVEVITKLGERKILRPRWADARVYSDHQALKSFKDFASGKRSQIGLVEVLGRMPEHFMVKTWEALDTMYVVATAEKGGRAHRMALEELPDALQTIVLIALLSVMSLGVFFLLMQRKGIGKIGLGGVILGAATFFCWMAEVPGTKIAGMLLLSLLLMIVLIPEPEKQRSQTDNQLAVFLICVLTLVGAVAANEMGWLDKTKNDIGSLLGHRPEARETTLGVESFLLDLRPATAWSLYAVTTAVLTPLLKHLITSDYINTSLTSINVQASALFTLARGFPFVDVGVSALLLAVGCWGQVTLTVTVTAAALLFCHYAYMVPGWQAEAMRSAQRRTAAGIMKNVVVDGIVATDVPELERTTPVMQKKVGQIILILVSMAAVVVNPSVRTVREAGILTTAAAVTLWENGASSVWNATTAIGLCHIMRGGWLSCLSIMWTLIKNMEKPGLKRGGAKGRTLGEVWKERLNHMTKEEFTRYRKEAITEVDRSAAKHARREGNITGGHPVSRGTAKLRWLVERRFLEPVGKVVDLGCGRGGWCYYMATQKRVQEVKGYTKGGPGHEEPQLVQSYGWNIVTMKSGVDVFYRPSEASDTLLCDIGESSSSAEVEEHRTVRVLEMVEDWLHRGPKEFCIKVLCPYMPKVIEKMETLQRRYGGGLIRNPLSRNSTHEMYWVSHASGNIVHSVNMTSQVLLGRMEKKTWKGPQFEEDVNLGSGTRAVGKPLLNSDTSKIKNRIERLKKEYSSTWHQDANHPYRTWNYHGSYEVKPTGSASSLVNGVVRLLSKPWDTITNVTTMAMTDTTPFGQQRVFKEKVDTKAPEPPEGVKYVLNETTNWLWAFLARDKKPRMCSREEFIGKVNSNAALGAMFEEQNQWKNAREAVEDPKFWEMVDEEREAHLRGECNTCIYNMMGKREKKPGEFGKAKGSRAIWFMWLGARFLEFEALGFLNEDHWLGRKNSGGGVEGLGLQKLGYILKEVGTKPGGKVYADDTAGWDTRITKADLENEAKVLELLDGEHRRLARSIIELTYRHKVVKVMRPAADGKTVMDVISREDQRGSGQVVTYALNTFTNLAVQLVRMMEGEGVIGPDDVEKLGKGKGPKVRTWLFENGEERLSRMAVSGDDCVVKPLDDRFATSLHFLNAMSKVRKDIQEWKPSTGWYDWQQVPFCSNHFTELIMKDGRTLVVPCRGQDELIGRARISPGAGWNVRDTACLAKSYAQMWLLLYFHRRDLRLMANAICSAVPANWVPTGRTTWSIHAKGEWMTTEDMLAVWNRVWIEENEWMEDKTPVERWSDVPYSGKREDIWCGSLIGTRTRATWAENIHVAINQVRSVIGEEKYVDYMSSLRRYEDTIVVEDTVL

SMILES	inhibition [1]	R% [2]	EC50 (Genome polyprotein [3])	Drug uptake [4]	CC50 at 24 h [5]	inhibition (INH) (Trypsin)	Drug uptake [6]	IC50 (Genome polyprotein [7])	Papp at 5 h, 200 µM [8]	IC50 (Genome polyprotein [9])	inhibition [10]	inhibition (INH) (Prothrombin)	inhibition [11]	Drug uptake ([6]; BLD = below limit of detection)	inhibition at 12.5 µM (dengue virus type 2)	Activity (Huh-7)
N=C(N)Nc1ccc(CNC(=O)[C@@H](NC(=O)c2cccc(Oc3ccccc3)c2)c2ccc(OCc3ccccc3)cc2)cc1.O=C(O)C(F)(F)F	99.8%	15.2%	7.3 µM	1.1 µM	> 25 µM	Not Active	168.9 µM	6.1 µM	0.2 ×10⁻⁶ cm/s	4.9 µM	67.5%	Not Active	101%			
NC(=O)N1c2ccccc2C=Cc2ccccc21 [CARBAMAZEPINE]		2.3%		35.7 µM			171.6 µM		8.1 ×10⁻⁶ cm/s							
N=C(N)Nc1ccc(CNC(=O)[C@@H](NC(=O)Cc2ccc(-c3ccccc3)cc2)c2ccc(OCc3ccccc3)cc2)cc1.O=C(O)C(F)(F)F	99.3%		20 µM		> 50 µM	Not Active		1.8 µM		1.3 µM	16.3%	Not Active	101%	Bld		
CCCCCC(=O)N[C@H](C(=O)Nc1ccc2[nH]ncc2c1)c1ccc(OCc2ccccc2)cc1	26%		6.9 µM		> 50 µM	Not Active					65.4%	Not Active	22.4%			
CCCCCC(=O)N[C@H](C(=O)NCc1ccc(NC(=N)N)cc1)c1ccc(OCc2c(Cl)cccc2Cl)cc1.O=C(O)C(F)(F)F	101%				> 50 µM	Not Active		6.2 µM		2.9 µM	41.5%	Not Active	97.5%	Bld		
CCCCCC(=O)N[C@H](C(=O)NCc1ccc(NC(=N)N)cc1)c1ccc(OCc2ccc(C(F)(F)F)cc2)cc1.O=C(O)C(F)(F)F	100%		3 µM		> 50 µM	Not Active		12 µM		7.4 µM	66%	Not Active	96.3%		60.3%	Non-Toxic
CCCCCC(=O)N[C@@H](C(=O)NCc1ccc(NC(=N)N)cc1)c1ccc(OCc2ccc(Cl)c(Cl)c2)cc1.O=C(O)C(F)(F)F	101%		16 µM		> 50 µM	Not Active		8.3 µM		5.7 µM	51%	Not Active	97.3%			
CCCCCC(=O)N[C@H](C(=O)NCc1cccc(CN)c1)c1ccc(OCc2ccccc2)cc1	85.4%		4.2 µM		> 12.5 µM	Not Active		27 µM		30 µM	71%	Not Active	97.2%			
CCCCCC(=O)N[C@H](C(=O)NCc1ccc(CN(C)C)cc1)c1ccc(OCc2ccccc2)cc1	< 10%		6.7 µM		> 12.5 µM	Not Active					65.7%	Not Active	< 10%			
CCCCCCCCCC(=O)N[C@H](C(=O)NCc1ccc(NC(=N)N)cc1)c1ccc(OCc2ccccc2)cc1.O=C(O)C(F)(F)F	102%		2.3 µM		> 50 µM	Not Active		5 µM		2.3 µM	65.8%	Not Active	99.8%	Bld		
N=C(N)NCc1ccc(CNC(=O)[C@H](NC(=O)c2ccc(Oc3ccccc3)cc2)c2ccc(OCc3ccc(Cl)c(Cl)c3)cc2)cc1.O=C(O)C(F)(F)F	99.6%				> 50 µM	Not Active		5.5 µM		2.5 µM	36%	Not Active	99.8%	Bld		
O=C1NC(=O)C(c2ccccc2)(c2ccccc2)N1 [PHENYTOIN]		17.4%		23.4 µM			149.6 µM		6 ×10⁻⁶ cm/s							
N=C(N)Nc1ccc(CNC(=O)[C@@H](NC(=O)c2ccc(-c3ccc(Cl)cc3)cc2)c2ccc(OCc3ccccc3)cc2)cc1.O=C(O)C(F)(F)F	99.9%		7.1 µM		> 50 µM	Not Active		3.7 µM		2 µM	56.6%	Not Active	98.7%		79.9%	Non-Toxic
CCCCCC(=O)N[C@H](C(=O)NCc1ccc(N)nc1)c1ccc(OCc2ccccc2)cc1.O=C(O)C(F)(F)F	37.8%		13 µM		> 50 µM	Not Active					57%	Not Active	22.6%			
N=C(N)Nc1ccc(CNC(=O)[C@@H](NC(=O)c2ccc(OCc3ccccc3)cc2)c2ccc(OCc3ccccc3)cc2)cc1.O=C(O)C(F)(F)F	98.7%		2.1 µM		> 12.5 µM	Not Active		7.1 µM		4.4 µM	69.8%	Not Active	106%	Bld	27.4%	Non-Toxic
CCCCCC(=O)N[C@H](C(=O)NCc1ccc(NC(=N)N)nc1)c1ccc(OCc2ccccc2)cc1.O=C(O)C(F)(F)F	96.8%		5.9 µM		> 50 µM	Not Active		23 µM		19 µM	67.7%	Not Active	93.9%		31.5%	Non-Toxic
CCCCCC(=O)N[C@H](C(=O)NCc1ccc(CNC(=N)N)cc1)c1ccc(OCc2ccccc2)cc1.O=C(O)C(F)(F)F	98.6%		6.3 µM		> 50 µM	Not Active		37 µM		14 µM	66.3%	Not Active	104%		79.5%	Non-Toxic
CCCCCC(=O)N[C@H](C(=O)NCCCCCCN)c1ccc(OCc2ccccc2)cc1	< 10%		13 µM		> 50 µM	Not Active					45.8%	Not Active	18.1%			
Cn1c(=O)c2c(ncn2C)n(C)c1=O [CAFFEINE]		9.6%		31.9 µM			159.5 µM		7.7 ×10⁻⁶ cm/s							
CCCCCC(=O)N[C@H](C(=O)NCCCCCCNC(=N)N)c1ccc(OCc2ccccc2)cc1	28.3%		7.7 µM		> 50 µM	Not Active					61%	Not Active	< 10%			
COc1cccc(COc2ccc(C(=O)N[C@H](C(=O)NCc3ccc(NC(=N)N)cc3)c3ccc(OCc4ccccc4)cc3)cc2)c1.O=C(O)C(F)(F)F	102%		2.9 µM		> 12.5 µM	Not Active		7.4 µM		4.7 µM	67.6%	Not Active	98.4%	Bld	21.9%	Non-Toxic
